What was measured:
acetylcholinesterase = assay: Acetylcholinesterase Inhibition Assay (photometric method of Ellman et al.); assay type: biochemical
[1] = system: Scopolamine Induced Memory Deficit; assay: Dark Avoidance Assay (scopolamine induced memory deficit reversal); assay type: in vivo; details: s.c., mice, retest after 24 hours
Procedure: In this assay mice are tested for their ability to remember an unpleasant stimulus for a period of 24 hours. A mouse is placed in a chamber that contains a dark compartment; a strong incadescent light drives it to the dark compartment,where an electric shock is administered through metal plates on the floor. The animal is removed from the testing apparatus and tested again, 24 hours later, for the ability to remember the electric shock.
If scopolamine, an anticholinergic that is known to cause memory impairment, is administered before an animal's initial exposure to the test chamber, the animal re-enters the dark compartment shortly after being placed in the test chamber 24 hours later. This effect of scopolamine is blocked by an active test compound, resulting in a greater interval before re-entry into the dark compartment.
The results for an active compound are expressed as the percent of a group of animals in which the effect of scopolamine is blocked, as manifested by an increased interval between being placed in the test chamber and re-entering the dark compartment.

Sequence of acetylcholinesterase (P22303 32-614): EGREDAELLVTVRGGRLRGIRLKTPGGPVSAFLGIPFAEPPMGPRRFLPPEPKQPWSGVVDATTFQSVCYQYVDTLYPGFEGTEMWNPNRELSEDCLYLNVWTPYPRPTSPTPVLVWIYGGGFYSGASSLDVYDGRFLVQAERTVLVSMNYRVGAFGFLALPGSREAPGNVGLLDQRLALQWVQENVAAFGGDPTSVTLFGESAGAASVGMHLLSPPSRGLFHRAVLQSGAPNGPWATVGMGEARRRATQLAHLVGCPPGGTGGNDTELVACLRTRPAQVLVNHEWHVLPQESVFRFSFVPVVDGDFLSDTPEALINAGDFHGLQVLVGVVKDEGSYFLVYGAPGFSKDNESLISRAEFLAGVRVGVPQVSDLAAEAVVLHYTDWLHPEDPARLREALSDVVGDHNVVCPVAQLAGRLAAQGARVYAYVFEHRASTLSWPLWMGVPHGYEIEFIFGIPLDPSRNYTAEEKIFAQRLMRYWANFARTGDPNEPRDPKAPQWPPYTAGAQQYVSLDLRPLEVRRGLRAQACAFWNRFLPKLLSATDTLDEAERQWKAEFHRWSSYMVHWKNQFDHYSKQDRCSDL

`Oc1ccccc1C=Nc1c2c(nc3ccccc13)CCCC2` [9-Amino-N-[(2-hydroxyphenyl)methylene]-1,2,3,4-tetrahydroacridine, hemi-fumarate] showed an IC50 (acetylcholinesterase) of 5100 nM.

With `C(=Nc1c2c(nc3ccccc13)CCCC2)c1ccccc1` [N-Phenylmethylene-1,2,3,4-tetrahydro-9-acridinamine] the IC50 (acetylcholinesterase) was 230 nM, the “% of Animals with Scopolamine Induced Memory Deficit Reversal” value (“% of Animals” below) ([1]; 0.31 mg/kg of body weight) was 27% and the “% of Animals” value ([1]; 5.0 mg/kg of body weight) was 60%.

For `CC[C@@H]1C(=O)OC[C@@H]1Cc1cncn1C` [Pilocarpine, reference compound], the “% of Animals” value ([1]; 5.0 mg/kg of body weight) was 13%.

With `Nc1c2c(nc3ccccc13)CCCC2` [Tacrine, 9-amino-1,2,3,4-tetrahydroacridine, reference compound] the “% of Animals” value ([1]; 0.63 mg/kg of body weight) was 13%.
